# Tests used:
# [1] = target: T1, Avi-KRAS WT (2-169) GTP/RAF1 RBD-3xFLAG (51-131) (Homo sapiens, UniProt P01116); test: Raf1-KRAS WT-GTP disruption HTRF assay (Biological Example 3); format: binding; details: KRAS WT, GTP-loaded
# T1 construct: Avi-KRAS WT (2-169)
# Method in brief: (§1)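 50 nM Avi-KRAS (2-169) GTP/RAF1 RBD complex; 75 nM RBD-Avi; pH 7.5 Tris buffer, 10% DMSO; cpd 30 μM top, 3x, 10 pts; 1 h RT, 700 rpm; HTRF, % of DMSO.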
# [2] = target: T2, Avi-KRAS G12V (2-169) GTP/RAF1 RBD-3xFLAG (51-131) (Homo sapiens, UniProt P01116, G12V); test: Raf1-KRAS G12V-GTP disruption HTRF assay (Biological Example 3); format: binding; details: KRAS G12V, GTP-loaded
# T2 construct: Avi-KRAS G12V (2-169)
# Method in brief: as §1
# [3] = target: T3, Avi-KRAS G12C (2-169) GTP/RAF1 RBD-3xFLAG (51-131) (Homo sapiens, UniProt P01116, G12C); test: Raf1-KRAS G12C-GTP disruption HTRF assay (Biological Example 3); format: binding; details: KRAS G12C, GTP-loaded
# T3 construct: Avi-KRAS G12C (2-169)
# Method in brief: as §1
# [4] = target: T4, Avi-KRAS G12D (2-169) GTP/RAF1 RBD-3xFLAG (51-131) (Homo sapiens, UniProt P01116, G12D); test: Raf1-KRAS G12D-GTP disruption HTRF assay (Biological Example 3); format: binding; details: KRAS G12D, GTP-loaded
# T4 construct: Avi-KRAS G12D (2-169)
# Method in brief: as §1
# [5] = tested on: SW620 cells (KRAS G12V); test: Cell-based pERK HTRF assay in SW620 cell (Biological Example 4)
# Method in brief: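 In SW620 cells grown in RPMI with 10% FBS, a 4 h compound treatment (0.25% DMSO, 9-point curve from 1 μM) preceded lysis. Phospho-ERK levels were then read by time-resolved FRET at 615 nm emission.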
# [6] = tested on: GP2d cells (KRAS G12D); test: Cell-based pERK HTRF assay in GP2d cell (Biological Example 2); details: GP2d (KRAS G12D) cells
# Method in brief: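 Phospho-ERK in lysed cells was detected by HTRF using Eu cryptate and d2 antibodies, read between 4 and 24 h at room temperature. Prior to lysis, KRAS G12D GP2d cells, seeded the day before in DMEM with 10% FBS, were exposed to compounds for 60 min. Compounds were tested as 9-point half-log curves from 1 μM or 100 nM top, with 0.25% DMSO.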
# [7] = Homo sapiens, SW-620, SW620 (KRAS G12V) cells
# T1 sequence (P01116 2-169 isoform P01116-2): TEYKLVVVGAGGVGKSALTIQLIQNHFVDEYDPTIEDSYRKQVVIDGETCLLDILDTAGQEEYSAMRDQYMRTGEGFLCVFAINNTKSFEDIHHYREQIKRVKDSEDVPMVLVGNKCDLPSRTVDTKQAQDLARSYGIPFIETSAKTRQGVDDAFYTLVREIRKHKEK
# T3 sequence (P01116 2-169 isoform P01116-2 G12C): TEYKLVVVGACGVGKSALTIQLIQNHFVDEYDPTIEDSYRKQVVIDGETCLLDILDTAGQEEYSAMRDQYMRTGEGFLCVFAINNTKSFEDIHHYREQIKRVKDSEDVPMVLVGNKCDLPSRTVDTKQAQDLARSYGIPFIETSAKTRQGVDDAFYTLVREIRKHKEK
# T2 sequence (P01116 2-169 isoform P01116-2 G12V): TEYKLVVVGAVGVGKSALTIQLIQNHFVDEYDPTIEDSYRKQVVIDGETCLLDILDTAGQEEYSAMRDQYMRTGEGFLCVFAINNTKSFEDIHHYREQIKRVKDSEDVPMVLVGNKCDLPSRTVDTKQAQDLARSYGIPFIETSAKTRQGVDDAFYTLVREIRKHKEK
# T4 sequence (P01116 2-169 isoform P01116-2 G12D): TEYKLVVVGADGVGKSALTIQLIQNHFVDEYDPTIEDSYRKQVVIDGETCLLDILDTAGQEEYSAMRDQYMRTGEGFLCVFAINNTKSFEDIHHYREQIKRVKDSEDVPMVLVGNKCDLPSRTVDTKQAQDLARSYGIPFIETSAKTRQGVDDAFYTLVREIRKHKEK
SMILES,IC50 [1] [µM],IC50 [2] [µM],IC50 [3] [µM],IC50 [4] [µM],"IC50 [5, 7] [µM]",IC50 ([6]; GP2d) [µM],IC50 ([5]; SW620 (KRAS G12V) cells) [µM],IC50 [6] [µM]
"CCN(c1nc(OC[C@@]23CCCN2C[C@H](F)C3)nc2c(F)c(-c3ccc(F)c4sc(N)c(C#N)c34)c(C(F)(F)F)cc12)[C@H]1CCN(C(=O)c2cccs2)C1 (atropisomer, axis not shown) [Compound 920]",0.1 to 1,0.1 to 1,0.1 to 1,0.1 to 1,< 0.1,< 0.1,,
N#Cc1c(N)sc2c(F)ccc(-c3c(C(F)(F)F)cc4c(N5CCC(c6cccnc6)C5)nc(OC[C@@]56CCCN5C[C@H](F)C6)nc4c3F)c12 (stereo partly drawn) [Compound 943],> 10,> 10,> 10,> 10,< 0.1,< 0.1,,
"CN(Cc1ccon1)c1nc(OC[C@@]23CCCN2C[C@H](F)C3)nc2c(F)c(-c3ccc(F)c4sc(N)c(C#N)c34)c(C(F)(F)F)cc12 (atropisomer, axis not shown) [Compound 856]",1 to 10,0.1 to 1,1 to 10,0.1 to 1,< 0.1,< 0.1,,
"CCN(c1nc(OC[C@@]23CCCN2C[C@H](F)C3)nc2c(F)c(-c3ccc(F)c4sc(N)c(C#N)c34)c(C(F)(F)F)cc12)[C@H]1CCN(C(=O)c2cocn2)[C@@H]1C (atropisomer, axis not shown) [Compound 900]",0.1 to 1,0.1 to 1,0.1 to 1,0.1 to 1,< 0.1,< 0.1,,
"CN(c1nc(OC[C@@]23CCCN2C[C@H](F)C3)nc2c(F)c(-c3ccc(F)c4sc(N)c(C#N)c34)c(C(F)(F)F)cc12)[C@H]1CCCc2ccncc21 (atropisomer, axis not shown) [Compound 971]",> 10,> 10,> 10,> 10,< 0.1,< 0.1,,
"CCN(c1nc(OC[C@@]23CCCN2C[C@H](F)C3)nc2c(F)c(-c3ccc(F)c4sc(N)c(C#N)c34)c(C(F)(F)F)cc12)[C@H]1C[C@H](COC)N(C(=O)[C@H]2CCO2)C1 (atropisomer, axis not shown) [Compound 840]",0.1 to 1,0.1 to 1,0.1 to 1,0.1 to 1,< 0.1,< 0.1,,
N#Cc1c(N)sc2c(F)ccc(-c3c(C(F)(F)F)cc4c(N5Cc6ccncc6C5)nc(OC[C@@]56CCCN5C[C@H](F)C6)nc4c3F)c12 [Compound 946],1 to 10,1 to 10,1 to 10,1 to 10,0.1 to 1,< 0.1,,
"CCN(c1nc(OC[C@@]23CCCN2C[C@H](F)C3)nc2c(F)c(-c3ccc(F)c4sc(N)c(C#N)c34)c(C(F)(F)F)cc12)[C@H]1CCN(C(=O)O[C@H]2CO[C@H]3OCC[C@H]32)C1 (atropisomer, axis not shown) [Compound 816]",0.1 to 1,0.1 to 1,≤ 0.1,0.1 to 1,< 0.1,< 0.1,,
CCN(c1nc(OC[C@@]23CCCN2C[C@H](F)C3)nc2c(F)c(-c3ccc(F)c4sc(N)c(C#N)c34)c(C(F)(F)F)cc12)[C@@H]1CCN(c2ccccn2)C1 [Compound 945],> 10,> 10,> 10,1 to 10,< 0.1,< 0.1,,
"CCN(c1nc(OC[C@@]23CCCN2C[C@H](F)C3)nc2c(F)c(-c3ccc(F)c4sc(N)c(C#N)c34)c(C(F)(F)F)cc12)[C@H]1CCN(C(=O)c2ncc(Cl)s2)C1 (atropisomer, axis not shown) [Compound 939]",1 to 10,1 to 10,1 to 10,0.1 to 1,< 0.1,< 0.1,,
"CCN(c1nc(OC[C@@]23CCCN2C[C@H](F)C3)nc2c(F)c(-c3ccc(F)c4sc(N)c(C#N)c34)c(C(F)(F)F)cc12)[C@H]1CCN(C(=O)O[C@H]2CCCOC2)C1 (atropisomer, axis not shown) [Compound 822]",0.1 to 1,0.1 to 1,0.1 to 1,0.1 to 1,< 0.1,< 0.1,,
"CCN(c1nc(OC[C@@]23CCCN2C[C@H](F)C3)nc2c(F)c(-c3ccc(F)c4sc(N)c(C#N)c34)c(C(F)(F)F)cc12)[C@@H]1C=C[C@H](C(=O)N(C)C)C1 (atropisomer, axis not shown) [Compound 937]",1 to 10,1 to 10,1 to 10,1 to 10,< 0.1,< 0.1,,
"CCN(c1nc(OC[C@@]23CCCN2C[C@H](F)C3)nc2c(F)c(-c3ccc(F)c4sc(N)c(C#N)c34)c(C(F)(F)F)cc12)[C@H]1C[C@H](C)N(C(=O)[C@@H]2CCO2)C1 (atropisomer, axis not shown) [Compound 922]",0.1 to 1,≤ 0.1,≤ 0.1,≤ 0.1,< 0.1,< 0.1,,
"CCN(c1nc(OC[C@@]23CCCN2C[C@H](F)C3)nc2c(F)c(-c3ccc(F)c4sc(N)c(C#N)c34)c(C(F)(F)F)cc12)[C@H]1CCN(C(=O)N2CC(F)(F)C2)C1 (atropisomer, axis not shown) [Compound 831]",0.1 to 1,0.1 to 1,0.1 to 1,0.1 to 1,< 0.1,< 0.1,,
"CCN(c1nc(OC[C@@]23CCCN2C[C@H](F)C3)nc2c(F)c(-c3ccc(F)c4sc(N)c(C#N)c34)c(C(F)(F)F)cc12)[C@H]1C[C@H]2C[C@H](C)C(=O)N2C1 (atropisomer, axis not shown) [Compound 891]",≤ 0.1,≤ 0.1,≤ 0.1,≤ 0.1,< 0.1,< 0.1,,
CCN(c1nc(OC[C@@]23CCCN2C[C@H](F)C3)nc2c(F)c(-c3ccc(F)c4sc(N)c(C#N)c34)c(C(F)(F)F)cc12)[C@@H]1CCN(c2cccn(C)c2=O)C1 [Compound 964],1 to 10,1 to 10,1 to 10,1 to 10,< 0.1,< 0.1,,
"CCN(c1nc(OC[C@@]23CCCN2C[C@H](F)C3)nc2c(F)c(-c3ccc(F)c4sc(N)c(C#N)c34)c(C(F)(F)F)cc12)[C@H]1CCN(C(=O)[C@H]2C[C@@H](F)C2)C1 (atropisomer, axis not shown) [Compound 842]",0.1 to 1,0.1 to 1,0.1 to 1,0.1 to 1,< 0.1,< 0.1,,
"CN(Cc1cncnc1)c1nc(OC[C@@]23CCCN2C[C@H](F)C3)nc2c(F)c(-c3ccc(F)c4sc(N)c(C#N)c34)c(C(F)(F)F)cc12 (atropisomer, axis not shown) [Compound 898]",1 to 10,0.1 to 1,1 to 10,0.1 to 1,< 0.1,< 0.1,,
"CCN(c1nc(OC[C@@]23CCCN2C[C@H](F)C3)nc2c(F)c(-c3ccc(F)c4sc(N)c(C#N)c34)c(C(F)(F)F)cc12)[C@H]1C[C@@H]2CCN(C)C(=O)N2C1 (atropisomer, axis not shown) [Compound 667]",0.1 to 1,0.1 to 1,0.1 to 1,0.1 to 1,< 0.1,< 0.1,,
CN(c1nc(OCC23CCCN2CC(F)C3)nc2c(F)c(-c3ccc(F)c4sc(N)c(C#N)c34)c(C(F)(F)F)cc12)C1CCc2ccncc21 (stereo not drawn) [Compound 961],> 10,1 to 10,> 10,1 to 10,,,< 0.1,< 0.1
"CCN(c1nc(OC[C@@]23CCCN2C[C@H](F)C3)nc2c(F)c(-c3ccc(F)c4sc(N)c(C#N)c34)c(C(F)(F)F)cc12)[C@H]1C[C@H](COC)N(C(=O)[C@@H]2C[C@H]2F)C1 (atropisomer, axis not shown) [Compound 848]",0.1 to 1,0.1 to 1,0.1 to 1,0.1 to 1,< 0.1,< 0.1,,
"CN(CC1COC1)c1nc(OC[C@@]23CCCN2C[C@H](F)C3)nc2c(F)c(-c3ccc(F)c4sc(N)c(C#N)c34)c(C(F)(F)F)cc12 (atropisomer, axis not shown) [Compound 963]",1 to 10,> 10,> 10,1 to 10,> 1,> 1,,

# From patent US20260042764A1, “COMPOSITIONS AND METHODS FOR INHIBITION OF KRAS” (TheRas, Inc., priority 2022, published 2026)
